Patent US20040138826A1, “Experimental design and data analytical methods for detecting and characterizing interactions and interaction thresholds on fixed ratio rays of polychemical mixtures and subsets thereof” (priority 2002, published 2004)
Values joined by “and” are separate entries in the source; they are usually repeats but may differ in a detail not shown here. Equal entries are not always repeated. “Also recorded” adds a separate entry of the source. Where two headings read alike, the source gives them in different places.

Legend:
healthy adult rats = conditions: for Threshold Estimate: dose threshold for motor activity, threshold additivity model, SAR analysis; for Threshold Estimate / Mean Motor Activity Response: rats; for Mean Motor Activity Response: single chemical
Excerpt: To motivate the use of these fixed-ratio mixture ray designs consider a study which examines exposure to environmentally relevant pesticides. The OP pesticides chosen for study, based on usage patterns (i.e. pesticides used on same or similar crops) and market share (i.e. highest volume pesticides), were acephate, diazinon, chlorpyrifos, dimethoate, and malathion. Motor activity, a count of the number of passes made across a central area, was used to assess toxicity in healthy adult rats. A full five-pesticide fixed-ratio ray, given by (0.040:0.002:0.031:0.102:0.825) for (acephate:diazinon:chlorpyrifos:dimethoate:malathion), was chosen based on relative dietary exposure estimates of each chemical as projected by the U.S. EPA Dietary Exposure Evaluation Model (DEEM).
Single chemical data were collected approximately 18 months prior to the data along the full fixed-ration ray.
Fixed-ratio ray designs were chosen to study interactions among combinations of multiple pesticides. The pesticides chosen for these studies, based on usage patterns (i.e., pesticides used on the same or similar crops) and market share (i.e., highest volume pesticides), were acephate, diazinon, chlorpyrifos, dimethoate, and malathion. Motor activity, a count of the number of passes made across a central area, was chosen to assess the toxicity of these pesticides in healthy adult rats. The fixed-ratio ray under study was chosen based on the relative dietary exposure estimates of each chemical as projected by the U.S. EPA Dietary Exposure Evaluation Model (DEEM) and is given by (0.040:0.002:0.031:0.102:0.825) for acephate, diazinon, chlorpyrifos, dimethoate, and malathion respectively.
The five-pesticide study described in the introduction is used to illustrate the sample size and power methods developed in Section 3. Due to the high potential of aggregate exposure to OP pesticides, researchers were initially interested in testing the hypothesis of additivity, given in (5), along the full five-pesticide fixed-ratio ray, given by (0.040:0.002:0.031:0.102:0.825) for ([…]), that represents relative dietary exposure estimates. Single chemical data were collected and used to estimate an additivity model along the ray (analysis not shown). Since, the motor activity response is a count variable it was assumed that V(m)=m and the log link function (McCullagh and Nelder, 1989) was used to fit the generalized linear additivity model described in Section 2. […] Eighty-six animals were considered. Fourteen animals were evaluated in the control group. Twelve animals each were evaluated at 10, 55, 100, 200, 300, and 450 mg/kg. Summary statistics for the single chemical and mixture data are provided in the appendix.
The five-pesticide study described in the introduction is used to illustrate the design methodology developed in the following sections. Due to the high potential for aggregate exposure to OP pesticides, researchers were initially interested in testing the hypothesis of additivity, given in (4), along the full five-pesticide fixed-ratio ray, given by (0.040:0.002:0.031:0.102:0.825) for (acephate:diazinon:chlorpyrifos:dimethoate:malathion). Since motor activity response is a count variable, it was assumed that V(μ)=μ and the log link function (McCullagh and Nelder, 1989) was used to fit the generalized linear additivity model given in (1). […] Eighty-six animals were considered. Fourteen animals were evaluated in the control group. Twelve animals each were evaluated at 10, 55, 100, 200, 300, and 450 mg/kg.

rats = conditions: for effect when given alone on gait abnormality: single chemical data, rats
Excerpt: The endpoint of interest is neurotoxicity in rats as measured by a gait score dichotomized to indicate presence or absence of a gait abnormality (i.e., incoordination, loss of balance, etc.). The fixed-ratio ray under study was chosen based on the relative dietary exposure estimates of each chemical as projected by the U.S. EPA Dietary Exposure Evaluation Model (DEEM) and is given by (0.040:0.002:0.031:0.825:0.102) for ACE, DIA, CPF, MAL, DIM, respectively. […] (Note: Such a strategy can be extended for identifying the impact of the unidentified fraction in a complex mixture.)
The biological endpoint of interest is an indicator of neurotoxicity based on evidence of the presence or absence of a gait abnormality (Moser, 1995). In order to appropriately constrain the probability of a response to be between 0 and 1, a logit link function was used, i.e., g(μ)=log(μ/(1−μ)). It was assumed throughout that the variance changes as a binomial random variable such that Var(Y)=τμ(1−μ) (e.g., McCullagh and Nelder, 1989).
The resulting mixture experiment consisted of a vehicle control (n=14), ‘positive controls’ for ACE alone (6 and 30 mg/kg; n=6, 14, respectively), CPF alone (10, 20, 30 mg/kg; n=6, 8, 6, respectively), DIAZ alone (50 and 125 mg/kg; n=6, 14, respectively), MAL alone (350 mg/kg; n=14), DIM alone (10, 25, 50 mg/kg; n=6, 8, 6, respectively), and six total dose mixture concentrations (10, 55, 100, 200, 300 and 450 mg/kg; n=12 rats per dose group for a total of 72 rats exposed to a mixture of the chemicals) at a fixed mixing ratio ray of (0.040:0.002:0.031:0.825:0.102) for (ACE:DIA:CPF:MAL:DIM). Similarly, the design for a second fixed-ratio ray was based on a reduced number of the pesticides (omitting MAL) with the remaining pesticides at the same relative proportions as in the ‘full’ mixture study. The experiment consisted of a vehicle control (n=8), positive controls (n=8 per group) for ACE (30 mg/kg), CPF (20 mg/kg), DIA (125 mg/kg), and DIM (25 mg/kg), and six total dose mixture concentrations (1.75, 9.6, 17.5, 35, 52.5, and 78.8 mg/kg; n=12 rats per dose group) at a fixed mixing ratio ray of (0.229:0.011:0.177:0.583) for (ACE:DIA:CPF:DIM). Casey et al (2003a,b) describe the motor activity data in the mixture of these five pesticides.

| SMILES | Threshold Estimate (healthy adult rats) [mg/kg] | Mean Motor Activity Response (healthy adult rats; dose 1 mg/kg) | Mean Motor Activity Response (healthy adult rats; dose 2 mg/kg) | Mean Motor Activity Response (healthy adult rats; dose 5 mg/kg) | Mean Motor Activity Response (healthy adult rats; dose 10 mg/kg) | Mean Motor Activity Response (healthy adult rats; dose 20 mg/kg) | Mean Motor Activity Response (healthy adult rats; dose 25 mg/kg) | Mean Motor Activity Response (healthy adult rats; dose 30 mg/kg) | Mean Motor Activity Response (healthy adult rats; dose 50 mg/kg) | effect when given alone on gait abnormality (rats) | Mean Motor Activity Response (healthy adult rats; dose 75 mg/kg) | Mean Motor Activity Response (healthy adult rats; dose 125 mg/kg) | Mean Motor Activity Response (healthy adult rats; dose 150 mg/kg) | Mean Motor Activity Response (healthy adult rats; dose 250 mg/kg) | effect of malathion on the mixture, motor activity (healthy adult rats; SAR method, full vs reduced ray, p-value 0.068) | Mean Motor Activity Response (healthy adult rats; dose 100 mg/kg) | Mean Motor Activity Response (healthy adult rats; dose 500 mg/kg) | effect of MAL on the mixture, gait abnormality (rats; adjusted comparison of full and reduced rays, listed as MAL) | effect when given alone on gait abnormality (rats; listed as MAL) |
| --- | --- | --- | --- | --- | --- | --- | --- | --- | --- | --- | --- | --- | --- | --- | --- | --- | --- | --- | --- |
| CCOP(=S)(OCC)Oc1nc(Cl)c(Cl)cc1Cl [Chlorpyrifos, chlorpyrifos] | 4.69 | 213.13 | 192.75 | 213.37 | 178.31 and 172.13 | 157.13 | 162.00 | 80.13 | 49.44 and 56.38 | significant effect on a gait abnormality |  |  |  |  |  |  |  |  |  |
| CCOP(=S)(OCC)Oc1cc(C)nc(C(C)C)n1 [Diazinon, diazinon] | 25.0 |  |  | 190.88 |  |  | 215.56 |  | 183.13 | significant effect on a gait abnormality | 165.69 | 152.00 | 76.5 | 61.25 |  |  |  |  |  |
| CNC(=O)CSP(=S)(OC)OC [Dimethoate, dimethoate] | 8.72 |  |  | 188.25 | 188.63 |  | 107.75 |  | 103.75 | significant effect on a gait abnormality | 101.50 |  |  |  |  |  |  |  |  |
| CCOC(=O)CC(SP(=S)(OC)OC)C(=O)OCC (stereo not shown) [Malathion, malathion] |  |  |  |  |  |  |  |  |  |  |  |  |  |  | marginal evidence that malathion has an effect on the mixture | 201.5 | 203.75 | significantly (p=0.016) changes the shape of the dose response curve in the full ray; also recorded: interacts with at least some or all of the other four pesticides; also recorded: interacts with the other pesticides | not dose responsive |
